Measurements as given in patent publication US20260109707A1, “HETEROBIFUNCTIONAL COMPOUNDS AND METHODS OF TREATING DISEASE” (Halda Therapeutics OpCo. Inc., priority 2022, published 2026).
Like-named read-outs stand apart in the source and are kept apart here.

Assays:
[1] = test system: T-Rex 293 cell line SC3 cells having increased expression of androgen receptor protein due to exposure to doxycycline; experiment: Cellular growth inhibition assay, T-Rex 293 SC3 cells with doxycycline (CellTiter-Glo, 72 hours); format: cell-based; conditions: T-Rex 293 SC3 cells with increased androgen receptor expression due to doxycycline (10 ng/mL)
How it was run: (§1)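 Doxycycline (10 ng/mL) was either included or omitted to toggle wild-type androgen receptor expression in SC3 cells, a T-Rex 293 clone, grown in stripped-serum, phenol red-free medium. After 72 hours with compound, viable cells were quantified by CellTiter-Glo 2.0.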

VCaP cells = experiment: Cellular growth inhibition assay for VCaP cells (CellTiter-Glo, 72 hours); format: cell-based, human
How it was run: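 Luminescent viability signal after 72 h of compound exposure gave GI50 values by four-parameter nonlinear regression. Compounds were added in 0.5% DMSO to cells plated 24 h earlier at 5000/well in DMEM containing 10% FBS.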

T47D cells = experiment: Cellular growth inhibition assay for T47D cells (CellTiter-Glo, 72 hours); format: cell-based, human; conditions: 72 hours treatment
How it was run: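 Luminescence from CellTiter-Glo 2.0 after 72 h of compound exposure gives the viability signal. Cells grew in insulin-supplemented (0.2 units/mL) DMEM with 10% FBS and were treated one day after seeding at 0.5% DMSO. GI50 values come from four-parameter nonlinear regression.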

[2] = test system: T-Rex 293 cell line SC3 cells lacking increased expression of androgen receptor protein; experiment: Cellular growth inhibition assay, T-Rex 293 SC3 cells without doxycycline (CellTiter-Glo, 72 hours); format: cell-based; conditions: T-Rex 293 cell line SC3 cells not exposed to doxycycline (lacking increased androgen receptor expression)
How it was run: as §1

Structure (SMILES): Cc1sc2c(c1C)C(c1ccc(C[C@@H]3CC[C@]4(C3)CN(c3ccc(C(=O)N[C@H]5CC[C@H](Oc6ccc(C#N)c(Cl)c6)CC5)nn3)CCO4)cc1)=NC(Cc1ncco1)c1nnc(C)n1-2 (stereo partly shown) [I-288]
- GI50 ([1]; 72 h): < 0.5 µM
- GI50 (VCaP cells; Homo sapiens, VCaP, 72 h): < 0.5 µM
- GI50 (T47D cells; Homo sapiens, T47D, 72 h): < 0.5 µM
- GI50 ([2]; 72 h): < 0.5 µM

Structure (SMILES): Cc1sc2c(c1C)C(c1ccc(O[C@@H]3CC[C@@]4(CCCN(c5ccc(C(=O)N[C@H]6CC[C@H](Oc7ccc(C#N)c(Cl)c7)CC6)nn5)C4)C3)nc1)=N[C@@H](Cc1ncco1)c1nnc(C)n1-2 [I-287]
- GI50 [1]: < 0.5 µM
- GI50 (VCaP cells): < 0.5 µM
- GI50 (T47D cells): 0.5 to 1.5 µM
- GI50 [2]: < 0.5 µM

Structure (SMILES): Cc1sc2c(c1C)C(c1ccc(OC[C@H]3CC[C@]4(C3)CN(c3ccc(C(=O)N[C@H]5CC[C@H](Oc6ccc(C#N)c(Cl)c6)CC5)nn3)CCO4)cn1)=N[C@@H](Cc1ncco1)c1nnc(C)n1-2 [I-405]
- GI50 ([1]; 72 h): < 0.5 µM
- GI50 (VCaP cells; Homo sapiens, VCaP, 72 h): < 0.5 µM
- GI50 (T47D cells; Homo sapiens, T47D, 72 h): < 0.5 µM
- GI50 ([2]; 72 h): < 0.5 µM

Structure (SMILES): [2H]C([2H])(c1ccc(C2=N[C@@H](Cc3ncco3)c3nnc(C)n3-c3sc(C)c(C)c32)cc1)N1CCC2(CCCN(c3ccc(C(=O)N[C@H]4CC[C@H](Oc5ccc(C#N)c(Cl)c5)CC4)nn3)C2)C1 (stereo partly shown) [I-389]
- GI50 ([1]; 72 h): < 0.5 µM
- GI50 (VCaP cells; Homo sapiens, VCaP, 72 h): < 0.5 µM
- GI50 (T47D cells; Homo sapiens, T47D, 72 h): 0.5 to 1.5 µM
- GI50 ([2]; 72 h): 1.5 to 3 µM

Structure (SMILES): Cc1sc2c(c1C)C(c1ccc(O[C@@H]3CC[C@]4(CCCN(c5ccc(C(=O)N[C@H]6CC[C@H](Oc7ccc(C#N)c(Cl)c7)CC6)nn5)C4)C3)cn1)=N[C@@H](Cc1ncco1)c1nnc(C)n1-2 [I-360]
- GI50 ([1]; 72 h): < 0.5 µM
- GI50 (VCaP cells; Homo sapiens, VCaP, 72 h): < 0.5 µM
- GI50 (T47D cells; Homo sapiens, T47D, 72 h): < 0.5 µM
- GI50 ([2]; 72 h): < 0.5 µM

Structure (SMILES): Cc1sc2c(c1C)C(c1ccc(C[C@@H]3CC[C@@]4(CCCN(c5ccc(C(=O)N[C@H]6CC[C@H](Oc7ccc(C#N)c(Cl)c7)CC6)nn5)C4)C3)cc1)=N[C@@H](Cc1ncco1)c1nnc(C)n1-2 [I-125]
- GI50 ([1]; 72 h): < 0.5 µM
- GI50 (VCaP cells; Homo sapiens, VCaP, 72 h): < 0.5 µM
- GI50 (T47D cells; Homo sapiens, T47D, 72 h): < 0.5 µM
- GI50 ([2]; 72 h): < 0.5 µM

Structure (SMILES): Cc1sc2c(c1C)C(c1ccc(N3CCN(C4CCN(c5ccc(C(=O)N[C@H]6CC[C@H](Oc7ccc(C#N)c(Cl)c7)CC6)nn5)CC4)C3=O)cc1)=NC(Cc1ncco1)c1nnc(C)n1-2 (stereo partly shown) [I-413]
- GI50 ([1]; 72 h): < 0.5 µM
- GI50 (VCaP cells): 1.5 to 3 µM
- GI50 (T47D cells): 1.5 to 3 µM
- GI50 [2]: > 3 µM

Structure (SMILES): Cc1sc2c(c1C)C(c1ccc(OC[C@@H]3CC[C@@]4(CCCN(c5ccc(C(=O)N[C@H]6CC[C@H](Oc7ccc(C#N)c(Cl)c7)CC6)nn5)C4)C3)cc1)=N[C@@H](Cc1ncco1)c1nnc(C)n1-2 [I-103]
- GI50 ([1]; 72 h): < 0.5 µM
- GI50 (VCaP cells; Homo sapiens, VCaP, 72 h): < 0.5 µM
- GI50 (T47D cells; Homo sapiens, T47D, 72 h): < 0.5 µM
- GI50 ([2]; 72 h): < 0.5 µM

Structure (SMILES): Cc1sc2c(c1C)C(c1ccc(OC3CN(CC4CCN(c5ccc(C(=O)N[C@H]6CC[C@H](Oc7ccc(C#N)c(Cl)c7)CC6)nn5)CC4)C3)cc1)=N[C@@H](Cc1ncco1)c1nnc(C)n1-2 [I-81]
- GI50 ([1]; 72 h): < 0.5 µM
- GI50 (VCaP cells; Homo sapiens, VCaP, 72 h): < 0.5 µM
- GI50 (T47D cells): > 3 µM
- GI50 [2]: > 3 µM

Structure (SMILES): Cc1sc2c(c1C)C(c1ccc(OC3CN(CC4CCN(c5ccc(C(=O)N[C@H]6CC[C@H](Oc7ccc(C#N)c(Cl)c7)CC6)nn5)CC4)C3)cc1)=N[C@@H](Cc1ncco1)c1nnc(C)n1-2 [I-87]
- GI50 [1]: < 0.5 µM
- GI50 (VCaP cells): < 0.5 µM
- GI50 (T47D cells): < 0.5 µM
- GI50 [2]: < 0.5 µM

Structure (SMILES): CCNC(=O)C[C@@H]1N=C(c2ccc(CCC3CN(c4ccc(C(=O)N[C@H]5CC[C@H](Oc6ccc(C#N)c(Cl)c6)CC5)nn4)C3)cc2)c2c(sc(C)c2C)-n2c(C)nnc21 [I-31]
- GI50 ([1]; 72 h): < 0.5 µM
- GI50 (VCaP cells; Homo sapiens, VCaP, 72 h): < 0.5 µM
- GI50 (T47D cells; Homo sapiens, T47D, 72 h): 0.5 to 1.5 µM
- GI50 ([2]; 72 h): 0.5 to 1.5 µM

Structure (SMILES): Cc1sc2c(c1C)C(c1ccc(C(=O)N3CCN(Cc4ccc(C(=O)N[C@H]5CC[C@H](Oc6ccc(C#N)c(Cl)c6)CC5)nn4)CC3)cc1)=N[C@@H](Cc1ncco1)c1nnc(C)n1-2 [I-290]
- GI50 ([1]; 72 h): > 3 µM
- GI50 (VCaP cells; Homo sapiens, VCaP, 72 h): > 3 µM
- GI50 (T47D cells; Homo sapiens, T47D, 72 h): > 3 µM
- GI50 ([2]; 72 h): > 3 µM

Structure (SMILES): Cc1sc2c(c1C)C(c1ccc(O[C@@H]3CC[C@]4(CCCN(c5ccc(C(=O)N[C@H]6CC[C@H](Oc7ccc(C#N)c(Cl)c7)CC6)nn5)C4)C3)nc1)=N[C@@H](Cc1ncco1)c1nnc(C)n1-2 [I-286]
- GI50 [1]: < 0.5 µM
- GI50 (VCaP cells): < 0.5 µM
- GI50 (T47D cells): 0.5 to 1.5 µM
- GI50 [2]: > 3 µM
